The compounds below were run against T1, human GPBAR1 receptor (Homo sapiens, UniProt Q8TDU6) (assay: functional cAMP assay in CHO-dhfr(minus) cells expressing human GPBAR1 receptors). Conditions: human EC50, functional cAMP assay, 30 min at 30° C.
T1 construct: expressed in transfected cells
T1 sequence (Q8TDU6 1-330): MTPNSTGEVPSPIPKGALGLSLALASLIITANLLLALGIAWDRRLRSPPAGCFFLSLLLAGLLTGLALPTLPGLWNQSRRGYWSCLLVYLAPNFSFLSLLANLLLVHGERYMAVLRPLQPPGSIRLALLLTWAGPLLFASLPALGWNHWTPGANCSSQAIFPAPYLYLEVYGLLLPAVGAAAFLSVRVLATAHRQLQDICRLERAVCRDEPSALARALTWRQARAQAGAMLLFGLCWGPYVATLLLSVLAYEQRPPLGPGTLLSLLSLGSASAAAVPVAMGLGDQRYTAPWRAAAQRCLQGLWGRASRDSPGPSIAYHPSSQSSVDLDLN
Assay type: cell-based
How it was run: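 Agonist cAMP read-out: stable GPBAR1 CHO-dhfr− clone, 30 min compound exposure at 30° C following 30 min IBMX (1 mM) preincubation in Krebs Ringer bicarbonate. Time-resolved energy-transfer detection gives EC50; parental CHO cells serve as counter-screen.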

| EC50 [nM] | SMILES |
| --- | --- |
| 165 | Cn1cc(/C(CC(c2ccc(Br)cc2)C2CCC2)=N/O)ccc1=O (centres unmarked) [Example 179, 5-{3-(4-Bromo-phenyl)-3-cyclobutyl-1-[(E)-hydroxyimino]-propyl}-1-methyl-1H-pyridin-2-one] |
| 24 | Cc1cc(/C(CC(c2ccc(-c3ccc(C(=O)O)c(Cl)c3)cc2)c2ccc(Cl)cc2F)=N/O)ccn1 (centres unmarked) [Example 451, 3-Chloro-4′-[1-(4-chloro-2-fluoro-phenyl)-3-[(E)-hydroxyimino]-3-(2-methyl-pyridin-4-yl)-propyl]-biphenyl-4-carboxylic acid] |
| 220 | Cc1ccccc1C(C/C(=N\O)c1ccc(=O)n(C)c1)c1ccc(C(=O)NC[C@H](C)O)cc1 (stereo partly drawn) [Example 247, 4-((E)-3-(Hydroxyimino)-3-(1-methyl-6-oxo-1,6-dihydropyridin-3-yl)-1-o-tolylpropyl)-N-((S)-2-hydroxypropyl)benzamide] |
| 31 | Cn1cc(/C(CC(c2ccc(Br)cc2)c2ccc(Cl)cc2F)=N/O)ccc1=O (single isomer, unassigned; (-)) [Example 240, (−)-5-{3-(4-Bromo-phenyl)-3-(4-chloro-2-fluoro-phenyl)-1-[(E)-hydroxyimino]-propyl}-1-methyl-1H-pyridin-2-one] |
| 221 | CCOCCn1cc(/C(CC(c2ccc(S(C)(=O)=O)cc2)c2ccc(Cl)cc2C)=N/O)ccc1=O (centres unmarked) [Example 340, (E)-5-(3-(4-Chloro-2-methylphenyl)-1-(hydroxyimino)-3-(4-(methylsulfonyl)phenyl)-propyl)-1-(2-ethoxyethyl)pyridin-2(1H)-one] |
| 156 | Cn1cc(/C(CC(c2ccc(-c3ccc(CC(=O)O)cc3)cc2)c2ccc(Cl)cc2F)=N/O)ccc1=O (single isomer, unassigned) [Example 461, {4′-[(−)-1-(4-Chloro-2-fluoro-phenyl)-3-[(E)-hydroxyimino]-3-(1-methyl-6-oxo-1,6-dihydro-pyridin-3-yl)-propyl]-biphenyl-4-yl}-acetic acid] |
| 6760 | Cc1ccccc1C(C/C(=N\O)c1cc(F)cc(F)c1)c1ccc(Br)cc1 (centres unmarked) [Example 53, (E)-3-(4-bromo-phenyl)-1-(3,5-difluoro-phenyl)-3-o-tolyl-propan-1-one oxime] |
| 375 | CCCC(C/C(=N\O)c1ccc(=O)n(C)c1)c1ccc(Br)cc1F (centres unmarked) [Example 191, 5-{3-(4-Bromo-2-fluoro-phenyl)-1-[(E)-hydroxyimino]-hexyl}-1-methyl-1H-pyridin-2-one] |
| 11 | Cc1cc(/C(C[C@H](c2ccc(N3CC(C(=O)O)C3)cc2)c2ccccc2C)=N/O)ccn1 [Example 279, 1-{4-[(R)-3-[(E)-Hydroxyimino]-3-(2-methyl-pyridin-4-yl)-1-o-tolyl-propyl]-phenyl}-azetidine-3-carboxylic acid] |
| 140 | COC(=O)CNC(=O)c1ccc(-c2ccc(C(C/C(=N\O)c3ccc(=O)n(C)c3)c3ccc(Cl)cc3C)cc2)cc1 (single isomer, unassigned; (-)) [Example 253, (−)-({4′-[1-(4-Chloro-2-methyl-phenyl)-3-[(E)-hydroxyimino]-3-(1-methyl-6-oxo-1,6-dihydro-pyridin-3-yl)-propyl]-biphenyl-4-carbonyl}-amino)-acetic acid methyl ester] |
| 3960 | Cn1cc(/C(CC(c2cccc(C(=O)N3CCOCC3)c2)c2ccc(Cl)cc2F)=N/O)ccc1=O (centres unmarked) [Example 322, (E)-5-(3-(4-Chloro-2-fluorophenyl)-1-(hydroxyimino)-3-(3-(morpholine-4-carbonyl)phenyl)propyl)-1-methylpyridin-2(1H)-one] |
| 2 | Cc1cc(/C(C[C@H](c2ccc(N3CCC(C(=O)NCC(=O)O)CC3)cc2)c2ccccc2C)=N/O)ccn1 [Example 369, (R,E)-2-(1-(4-(3-(Hydroxyimino)-3-(2-methylpyridin-4-yl)-1-o-tolylpropyl)phenyl)-piperidine-4-carboxamido)acetic acid] |
| 113 | Cc1cc(Cl)ccc1C(C/C(=N\O)c1ccc(=O)n(C)c1)c1ccc(C(=O)NC[C@@H](O)CO)cc1 (stereo partly drawn) [Example 335, 4-((E)-1-(4-Chloro-2-methylphenyl)-3-(hydroxyimino)-3-(1-methyl-6-oxo-1,6-dihydropyridin-3-yl)propyl)-N—((R)-2,3-dihydroxypropyl)benzamide] |
| 550 | CCn1cc(/C(CC(c2ccc(Br)cc2)c2ccccc2C)=N\O)ccc1=O (centres unmarked) [Example 165, 5-{3-(4-Bromo-phenyl)-1-[(Z)-hydroxyimino]-3-o-tolyl-propyl}-1-ethyl-1H-pyridin-2-one] |
| 256 | CCCCC(C/C(=N\O)c1ccc(=O)n(C)c1)c1ccc(Br)cc1 (centres unmarked) [Example 177, 5-{3-(4-Bromo-phenyl)-1-[(E)-hydroxyimino]-heptyl}-1-methyl-1H-pyridin-2-one] |
| 61 | Cn1cc(/C(C[C@@H](c2ccc(-c3ccc(C(=O)O)s3)cc2)c2ccc(Cl)cc2F)=N/O)ccc1=O [Example 470, 5-{4-[(+)-1-(4-Chloro-2-fluoro-phenyl)-3-[(E)-hydroxyimino]-3-(1-methyl-6-oxo-1,6-dihydro-pyridin-3-yl)-propyl]-phenyl}-thiophene-2-carboxylic acid] |
| 3210 | Cc1ccccc1[C@H](C/C(Cc1ccccn1)=N\O)c1ccc(Br)cc1 [Example 263, (E,R)-4-(4-bromophenyl)-1-(pyridin-2-yl)-4-o-tolylbutan-2-one oxime] |
| 22 | Cc1cc(/C(CC(c2ccc(-c3c[nH]c(=O)[nH]c3=O)cc2)c2ccc(Cl)cc2F)=N/O)ccn1 (centres unmarked) [Example 458, 5-{4-[1-(4-Chloro-2-fluoro-phenyl)-3-[(E)-hydroxyimino]-3-(2-methyl-pyridin-4-yl)-propyl]-phenyl}-1H-pyrimidine-2,4-dione] |
| 411 | Cc1ccccc1[C@H](C/C(Cc1ccncc1)=N\O)c1ccc(-c2ccc(C(=O)O)cc2)cc1 [Example 298, 4′-{(R)-3-[(E)-Hydroxyimino]-4-pyridin-4-yl-1-o-tolyl-butyl}-biphenyl-4-carboxylic acid] |
| 20 | COC(=O)CNC(=O)c1ccc(-c2ccc(C(C/C(=N\O)c3ccc(=O)n(C)c3)c3ccc(F)cc3C)cc2)cc1 (centres unmarked) [Example 257, ({4′-[1-(4-Fluoro-2-methyl-phenyl)-3-[(E)-hydroxyimino]-3-(1-methyl-6-oxo-1,6-dihydro-pyridin-3-yl)-propyl]-biphenyl-4-carbonyl}-amino)-acetic acid methyl ester] |
| 33 | O/N=C(\CC(c1ccccc1)c1ccc(-c2cncnc2)cc1)c1ccncc1 (centres unmarked) [Example 22, (E)-3-Phenyl-1-pyridin-4-yl-3-(4-pyrimidin-5-yl-phenyl)-propan-1-one oxime] |
| 1160 | Cn1cc(/C(CC(c2ccc(C(=O)NC3CCOCC3)c(F)c2)c2ccccc2Cl)=N/O)ccc1=O (centres unmarked) [Example 219, (E)-4-(1-(2-Chlorophenyl)-3-(hydroxyimino)-3-(1-methyl-6-oxo-1,6-dihydropyridin-3-yl)propyl)-2-fluoro-N-(tetrahydro-2H-pyran-4-yl)benzamide] |
| 302 | Cc1cc(Cl)ccc1[C@@H](C/C(=N\O)c1ccc(=O)n(C)c1)c1ccc(-c2ccc(C(=O)O)cc2)cc1 (single isomer, unassigned) [Example 394, (−)-4′-[1-(4-Chloro-2-methyl-phenyl)-3-[(E)-hydroxyimino]-3-(1-methyl-6-oxo-1,6-dihydro-pyridin-3-yl)-propyl]-biphenyl-4-carboxylic acid; compound with triethylamine 1:0.85] |

From US8765730B2 (Hoffmann-La Roche Inc, priority 2010, dated 2014)
